These results are taken from patent US6693123B2 (University of Pittsburgh, priority 1995, dated 2004).

Counter-ions that a name gives are not always drawn.

By inhibition is commonly meant the relative decrease from the control value, in per cent. Broadly, the % inhibition is the change of the read-out against control, counted positive when it falls. Lower therefore signals a response near the control.

For the first assay, the target named is T1, Rat brain protein farnesyltransferase (Rattus norvegicus, UniProt Q02293+Q04631).
T1 construct: The enzyme is purified according to Reiss, Y., et al., Cell, 62: 81-88 (1990), utilizing steps one through three; from tissue; host or cells: rat brain
Nature of the assay: In vitro inhibition of protein farnesyltransferase, Amersham scintillation proximity assay with biotin-K Ras B fragment. It is filed as biochemical. The conditions noted are these: Inhibition of farnesyltransferase; compound at 0.01 μM (Table 6, values marked **); read-out: % inhibition at 0.01 μM. (Scintillation proximity formats need no separation of bound from free tracer.)
`CCCOc1ccncc1C=Cc1ccc(C(=O)N[C@@H](CCSC)C(=O)O)c(-c2ccccc2C)c1` [Example 1362, N-[4-(2-(4-Propyloxypyridin-3-yl)ethenyl)-2-(2-methylphenyl)benzoyl]methionine Sodium Salt]: the inhibition at 0.01 µM was found to be 83%.

Still in this assay, the particulars now being: Inhibition of farnesyltransferase; compound at 1 × 10^−5 M (Table 1).
As to `CC(C)C[C@H](NC(=O)c1ccc(NCc2cccnc2)cc1-c1ccccc1)C(=O)O` [Example 390, 5-[N-(3-Pyridinyl)methylamino-2-phenylbenzoyl]leucine], the inhibition at 10 µM was above 50%.

Staying with this assay, now noted: Inhibition of farnesyltransferase; compound at 1 × 10^−6 M (Table 2).
In the case of `CSCC[C@H](NC(=O)c1ccc(C=Cc2cccnc2)cc1-c1ccccc1C)C(=O)OCOC(=O)C(C)(C)C` [Example 296], the “% inhibition at 1 × 10^−6 M” value came out at 89%.

“[4-(3-Pyridyloxymethyl)-2-phenylbenzoyl]cysteine Disodium Salt [Example 188]”: the “% inhibition at 1 × 10^−6 M” value is reported as 40%.

For the molecule `CNC(=O)CC[C@H](NC(=O)c1ccc(COc2cccnc2)cc1-c1ccccc1C)C(=O)O` [Example 314, (S)-2-N-[4-(3-Pyridyloxymethyl)-2-(2-methylphenyl)benzoyl]amino-4-(N-methylaminocarbonyl)butanoic Acid], the “% inhibition at 1 × 10^−6 M” value was found to be 97%.

As to `CSCC[C@H](NC(=O)c1ccc(CSc2cccnc2)cc1-c1ccccc1C)C(=O)O` [Example 324], the “% inhibition at 1 × 10^−6 M” value came out at 98%.

Consider `CSCC[C@H](NC(=O)c1ccc(C=Cc2cccnc2)cc1-c1ccccc1C)C(=O)OCOC(C)=O` [Example 295], for which the “% inhibition at 1 × 10^−6 M” value worked out at 94%.

The same assay, now with this note: Inhibition of farnesyltransferase; compound at 1 × 10^−6 M (Table 2); read-out: % inhibition at 1 × 10^−6 M.
Turning to `CSCCCNC(=O)c1ccc(CN(Cc2ccccc2)c2cccnc2)cc1-c1ccccc1C` [Example 926, 3-Methylthiopropyl N-4-(N-Pyrid-3-yl-N-benzylaminomethyl)-2-(2-methylphenyl)benzamide], the inhibition at 1 µM was 69%.

Regarding `CSCC[C@H](NC(=O)c1ccc(NCc2cccnc2)cc1-c1ccccc1)C(N)=O` [Example 196, [4-(3-Pyridylmethylamino)-2-phenylbenzoyl]methionineamide], the inhibition at 1 µM is 43%.

Turning to `CCc1cc(C(=O)N[C@@H](CCSC)C(=O)O)c(-c2ccccc2C)cc1COc1cccnc1` [Example 918, N-[5-Ethyl-4-(pyrid-3-yloxymethyl)-2-(2-methylphenyl)benzoyl]methionine], the inhibition at 1 µM was determined as 97%.

As for `CS(=O)(=O)CC[C@H](NC(=O)c1ccc(NC(=O)c2cccnc2)cc1-c1ccccc1)C(=O)O` [Example 203, [4-(3-Pyridylcarbonylamino)-2-phenylbenzoyl]-2-amino-4-(methylsulfonyl)butanoic Acid], the inhibition at 1 µM was 76%.

With `CSCC[C@H](NC(=O)c1ccc(/C=C/c2cccnc2)cc1-c1ccccc1C)C(N)=O` [Example 796, N-[4-(2-Pyrid-3-ylethen-1-yl)-2-(2-methylphenyl)benzoyl]methioninamide], the inhibition at 1 µM is 35%.

As to `CSCC[C@H](NC(=O)c1ccc(NCc2c[nH]cn2)cc1-c1ccccc1)C(=O)O` [Example 167, [4-(1H-Imidazol-4-ylmethyl)amino-2-phenylbenzoyl]methionine Hydrochloride], the inhibition at 1 µM is 98%.

On to `CSCC[C@@H](CC(=O)O)NC(=O)c1ccc(COc2cccnc2)cc1-c1ccccc1` [Example 248], for which the inhibition at 1 µM was determined as 79%.

On to `CSCC[C@H](NC(=O)c1ccc(C#Cc2cccnc2)cc1-c1ccccc1)C(=O)O` [Example 218, {4-[(Pyrid-3-yl)ethynyl]-2-phenylbenzoyl}methionine Hydrochloride], for which the inhibition at 1 µM is 89%.

For the molecule `CSCC[C@H](NC(=O)c1ccc(CSCc2c[nH]cn2)cc1-c1ccccc1)C(=O)O` [Example 242, [4-(1H-Imidazol-4-ylmethylthiomethyl)-2-phenylbenzoyl]methionine], the inhibition at 1 µM is 99%.

On to `CSCC[C@H](NC(=O)c1ccc(CN(Cc2ccccc2)c2cccnc2)cc1-c1ccccc1C)C(=O)OCOC(C)=O` [Example 499, Acetoxymethyl N-[4-N-Benzyl-N-pyridin-3-ylaminomethyl-2-(2-methylphenyl)benzoyl]methionine], for which the inhibition at 1 µM is 98%.

On to `CSCC[C@H](NC(=O)c1ccc(CNC(=O)c2cn(C)cn2)cc1-c1ccccc1)C(=O)O` [Example 332, [4-(1H-1-Methylimidazol-4-ylcarbonylaminomethyl)-2-phenylbenzoyl]methionine], for which the inhibition at 1 µM was 26%.

With `CSCC[C@H](NC(=O)c1ccc(CNc2ccccn2)cc1-c1ccccc1)C(=O)O` [Example 160, [4-(2-Pyridylaminomethyl)-2-phenylbenzoyl]methionine], the inhibition at 1 µM turned out to be 30%.

Turning to `CSCC[C@H](NC(=O)c1cc(-c2cccs2)c(COc2cccnc2)cc1-c1ccccc1C)C(=O)O` [Example 346], the inhibition at 1 µM worked out at 98%.

As to `CSCC[C@H](NC(=O)c1ccc(CSc2cccnc2)cc1-c1ccccc1C)C(=O)NS(=O)(=O)c1ccccc1` [Example 325], the inhibition at 1 µM came to 99%.

In the case of `CSCC[C@H](NC(=O)c1cc(-c2cc(Cl)cc(Cl)c2)c(COc2cccnc2)cc1-c1ccccc1C)C(=O)O` [Example 345], the inhibition at 1 µM is 91%.

Turning to `CSCC[C@@H](C(=O)O)N(C)C(=O)c1ccc(CNc2cccnc2)cc1-c1ccccc1` [Example 159, [4-(3-Pyridylaminomethyl)-2-phenylbenzoyl]-N-methylmethionine], the inhibition at 1 µM was 84%.

As for `CSCC[C@H](NC(=O)c1ccc(NCc2cccnc2)cc1-c1ccccc1)C(=O)O` [Example 192, [4-(3-Pyridylmethylamino)-2-phenylbenzoyl]methionine], the inhibition at 1 µM stood at 95%.

Staying with this assay, now noted: Inhibition of farnesyltransferase; compound at 1 × 10^−7 M (Table 3); read-out: % inhibition at 1 × 10^−7 M.
`CSCC[C@H](NC(=O)c1ccc(CCc2cccnc2)cc1-c1ccccc1C)/C(=N/O)NO` [Example 815, N-[4-(2-Pyrid-3-yleth-1-yl)-2-(2-methylphenyl)benzoyl]methionine N,N-Dihydroxyamidine]: the inhibition at 0.1 µM came to 71%.

Still in this assay, the particulars now being: Inhibition of farnesyltransferase; compound at 1 × 10^−8 M (Table 4); read-out: % inhibition at 1 × 10^−8 M.
On to `CSCC[C@H](NC(=O)c1cc(Cc2ccccc2)c(CN(Cc2ccccc2)c2cccnc2)cc1-c1ccccc1C)C(=O)O` [Example 920, N-[5-Benzyl-4-(N-pyrid-3-yl-N-benzylaminomethyl)-2-(2-metbylphenyl)benzoyl]methionine], for which the inhibition at 0.01 µM was 96%.

For `CSCC[C@H](NC(=O)c1ccc(CNCc2c[nH]cn2)cc1-c1ccccc1C)C(=O)O` [Example 954, N-[4-(Imidazol-4-ylmethylaminomethyl)-2-(2-methylphenyl)benzoyl]methionine], the inhibition at 0.01 µM is above 50%.

For `CSCC[C@H](NC(=O)c1ccc(COc2cccnc2)cc1-c1ccccc1)C(=O)NS(=O)(=O)N1CCSCC1` [Example 603, Thiomorpholinesulfonyl N-2-[4-(Pyrid-3-yloxymethyl)-2-phenylbenzoyl]amino-4-methylthiobutanamide], the inhibition at 0.01 µM was determined as 94%.

On to `CSCC[C@H](NC(=O)c1ccc(CN(Cc2ccccc2)c2cccnc2)cc1-c1ccc(F)cc1Cl)C(=O)O` [Example 873, N-(4-(N-Benzyl-N-pyrid-3-ylaminomethyl)-2-(2-chloro-4-fluorophynel)beonzoyl)methionine], for which the inhibition at 0.01 µM amounted to 97%.

Regarding `CSCC[C@H](NC(=O)c1ccc(CN(Cc2ccccc2)c2cccnc2)cc1-c1ccccc1C(F)(F)F)C(=O)O` [Example 409, [4-(N-Benzyl-N-3-pyridylaminomethyl)-2-(2-trifluoromethylphenyl)benzoyl]methionine], the inhibition at 0.01 µM was 84%.

`CSCC[C@H](NC(=O)c1ccc(CN(Cc2ccccc2)c2cncc(F)c2)cc1-c1ccccc1C)C(=O)O` [Example 410, [4-(N-Benzyl-N-3-(5-fluorolpyridyl)aminomethyl)-2-(2-methylphenyl)benzoyl]methionine]: the inhibition at 0.01 µM stood at 94%.

Staying with this assay, now noted: read-out: % inhibition at 0.01 μM.
`CSCC[C@H](NC(=O)c1ccc(/C=C(\C#N)c2cccnc2)cc1-c1ccccc1C)C(=O)O` [Example 1076, N-[4-(Z-2-Cyano-2-pyrid-3-ylethenyl)-2-(2-methylphenyl)benzoyl]methionine, Lithium Salt]: the inhibition at 0.01 µM stood at 69%.

In the case of `CSCC[C@H](NC(=O)c1ccc(/C=C/c2cnccc2Cl)cc1-c1ccccc1C)C(=O)O` [Example 1040, N-[4-(2-(4-Chloropyridin-3-yl)ethenyl)-2-(2-methylphenyl)benzoyl]methionine Lithium Salt], the inhibition at 0.01 µM is 90%.

With `CSCC[C@H](NC(=O)c1ccc(CN(Cc2cccnc2)Cc2cc(F)cc(F)c2)cc1-c1ccccc1C)C(=O)O` [Example 1286, N-[4-N-(N-(3-Pyridylmethyl)-N-(3,5-difluorobenzyl)aminomethyl)-2-(2-methylphenyl)benzoyl]methionine Lithium Salt], the inhibition at 0.01 µM was found to be 85%.

The same assay, now with this note: read-out: % inhibition at 0.1 μM.
In the case of `CSCC[C@H](NC(=O)c1ccc(/C=C(\C(=O)OC(C)(C)C)c2cccnc2)cc1-c1ccccc1C)C(=O)O` [Example 1078, N-[4-(Z-2-t-Butoxycarbonyl-2-pyrid-3-ylethenyl)-2-(2-methylphenyl)benzoyl]methionine, Lithium Salt], the inhibition at 0.1 µM stood at 86%.

The assay is the same for the next values; noted with them: read-out: % inhibition at 1 × 10^−7 M.
Take `CSCC[C@H](NC(=O)c1ccc(/C=C/c2cnc3ccccc3c2)cc1-c1ccccc1C)C(=O)O` (stereo in doubt) [Example 487, N-[4-(2-Quinolin-3-ylethen-1-yl)-2-(2-methylphenyl)benzoyl]methionine Lithium Salt]: the inhibition at 0.1 µM amounted to 81%.

Take `CSCC[C@H](NC(=O)c1ccc(/C=C/c2cncc3ccccc23)cc1-c1ccccc1C)C(=O)O` (stereo in doubt) [Example 491, N-[4-(2-Isoquinolin-4-ylethen-1-yl)-2-(2-methylphenyl)benzoyl]methionine Lithium Salt]: the inhibition at 0.1 µM was found to be 94%.
